According to paper PMC4876444, “Two-Photon Enzymatic Probes Visualizing Sub-cellular/Deep-brain Caspase Activities in Neurodegenerative Models” (Scientific Reports, 2016):

Test system: HeLa cells
Experiment: Permeability of free dye and probes in live cells (fluorescence imaging)
Type: cell-based, human
Conditions: HeLa cells, DMSO/STS 1 μM 4 h, then probe 24 μM 1 h at 4 °C or 37 °C, one-photon imaging
Experimental: Supplementary Figure 5. Detection of caspase activities in live mammalian cells. (a) One-photon images of AAN (5 μM)/probes (24 μM)/DMSO (blank) in live HeLa cells after 1-h incubation together with LysoTracker. (Panels 1-7) bright field; (Panels 8-14) λex = 405 nm, λem = 420-480 nm (indicative of probes, blue); (Panels 15-21) λex = 405 nm, λem = 470-500 nm (indicative of AAN, green); (Panels 22-28) LysoTracker (λex = 543 nm, λem = 560-615 nm, red); (Panels 29-35) merged images of blue/red channels. Scale bar: 20 μm. (b) Bioimaging of NIH/3T3 cells transfected with active caspase-1 (Panels 2/3/5/6; 50 ng)/caspase-3 (Panels 8/9; 15 ng)/caspase-8 (Panels 11/12; 5 ng) with/without inhibitor treatment (Panels 3/6/9/12, 50 μM of Z-VAD-FMK incubated for 1 h before probes were added) as well as control cells (Panels 1/4/7/10, no caspase transfection) by using C1RB (24 μM)/C1FS (12 μM) for caspase-1, C3RA (24 μM) for caspase-3 and C8RA (24 μM) for caspase-8. Cells were co-stained with membrane tracker. (Green) signals from caspase-cleaved probes (λex = 760 nm, λem = 480-550 nm for all probes, except for C1FS with λem = 450-550 nm). (Red) membrane tracker (λex = 650 nm, λem = 655-740 nm). (Inset) bright field. Scale bar = 10 μm. […]
XTT assay. The cytotoxicity of our probes was determined by using the XTT colorimetric cell proliferation kit (Roche) following manufacturer’s guidelines. […]

CC(=O)N[C@@H](CC(=O)O)C(=O)N[C@@H](CCC(=O)O)C(=O)N[C@H](C(=O)N[C@@H](CC(=O)O)C(=O)Nc1ccc2cc(C(C)=O)ccc2c1)C(C)C [C3RA, Ac-DEVD-AAN]
endocytosis and endo/lysosomal trapping of the probe: no obvious
